Measurements: ChEMBL document CHEMBL4342462, “Discovery and Characterization of 2,5-Substituted Benzoic Acid Dual Inhibitors of the Anti-apoptotic Mcl-1 and Bfl-1 Proteins” (J Med Chem, 2020)
Calls of active or inactive are those of the source. The calls are words filed in the database; no cut-off is given here.

The compounds below were run against T1, Apoptosis regulator Bcl-2 (Homo sapiens, UniProt P10415).
T1 sequence (P10415 whole entry): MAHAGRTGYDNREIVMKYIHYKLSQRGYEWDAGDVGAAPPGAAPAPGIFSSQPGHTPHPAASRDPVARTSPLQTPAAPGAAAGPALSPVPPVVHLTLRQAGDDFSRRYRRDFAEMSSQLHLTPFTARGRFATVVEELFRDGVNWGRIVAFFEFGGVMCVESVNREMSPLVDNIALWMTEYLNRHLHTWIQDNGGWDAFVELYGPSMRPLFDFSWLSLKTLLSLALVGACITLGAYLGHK

**Q.** How did the Ki turn out when CC(C)(C)c1ccc(N2CCN(S(=O)(=O)Nc3ccc(SCCc4ccccc4)cc3C(=O)O)CC2)cc1 was run?
**A.** 1200 nM

**Q.** For O=C(O)c1cc(SCCc2ccccc2)ccc1NS(=O)(=O)N1CCN(c2ccccc2)CC1, which Ki is on record?
**A.** 11700 nM

**Q.** Which Ki does the source give for COc1cccc(CCSc2ccc(NS(=O)(=O)N3CCN(c4ccc(C(C)(C)C)cc4)CC3)c(C(=O)O)c2)c1 here?
**A.** 1200 nM

**Q.** Which Ki does the source give for O=C(O)c1cc(SCCc2ccccc2)ccc1NS(=O)(=O)c1ccccc1 here?
**A.** > 25000 nM

What follows are compounds tested against T2, Induced myeloid leukemia cell differentiation protein Mcl-1 (Homo sapiens, UniProt Q07820).
T2 sequence (Q07820 whole entry): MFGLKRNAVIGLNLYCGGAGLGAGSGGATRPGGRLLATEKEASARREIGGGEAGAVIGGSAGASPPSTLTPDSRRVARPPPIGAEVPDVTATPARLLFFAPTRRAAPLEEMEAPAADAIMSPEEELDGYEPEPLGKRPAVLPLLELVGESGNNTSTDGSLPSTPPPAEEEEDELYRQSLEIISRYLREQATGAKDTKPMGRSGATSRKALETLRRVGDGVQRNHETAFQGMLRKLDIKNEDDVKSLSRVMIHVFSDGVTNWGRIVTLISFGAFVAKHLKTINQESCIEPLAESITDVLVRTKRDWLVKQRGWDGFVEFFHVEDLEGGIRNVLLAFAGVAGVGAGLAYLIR
Description: Binding affinity to immobilized biotin-labeled and N-terminal His6-tagged human Mcl-1 expressed in Escherichia coli Rosetta2 DE3 by biolayer interferometry

**Q.** For CC(C)(C)c1ccc(N2CCN(S(=O)(=O)Nc3ccc(SCCc4ccccc4)cc3C(=O)O)CC2)cc1, which Kd is on record?
**A.** 490 nM

Each compound was assayed against T3, Bcl-2-like protein 1 (Homo sapiens, UniProt Q07817) (assay: Inhibition of Bcl-xL (unknown origin) expressed in Eu-Myc cells assessed as induction of cell death at 75 to 100 uM incubated for 24 hrs by violet LIVE/DEAD fixable dead cell staining based flow cytometry).
T3 sequence (Q07817 whole entry): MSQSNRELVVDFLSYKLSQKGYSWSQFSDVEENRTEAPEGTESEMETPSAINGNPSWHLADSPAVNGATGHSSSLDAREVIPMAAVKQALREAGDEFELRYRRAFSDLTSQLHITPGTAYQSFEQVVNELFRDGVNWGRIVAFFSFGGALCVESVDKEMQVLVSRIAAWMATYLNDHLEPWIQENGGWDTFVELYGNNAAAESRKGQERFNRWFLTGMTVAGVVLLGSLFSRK

**Q.** Which inhibition does the source give for CC(C)(C)c1ccc(N2CCN(S(=O)(=O)Nc3ccc(SCCc4ccccc4)cc3C(=O)O)CC2)cc1 here?
**A.** Active

Biological target: T2, Induced myeloid leukemia cell differentiation protein Mcl-1
Remark: another data set of the same source
Description: Inhibition of N-terminal His6-tagged human Mcl1 expressed in Escherichia coli Rosetta2 DE3 by fluorescent labeled Flu-Bid peptide based fluorescence polarization assay

**Q.** O=C(O)c1cc(OCCc2ccccc2)ccc1NS(=O)(=O)c1ccccc1 was tested. Which Ki did it give?
**A.** 6100 nM

**Q.** Which Ki does the source give for O=C(O)c1cc(SCCc2ccccc2)ccc1NS(=O)(=O)c1ccc(-c2ccccc2)cc1 here?
**A.** 90 nM

**Q.** For CC(C)(C)c1ccc(N2CCN(S(=O)(=O)Nc3ccc(SCCc4ccccc4)cc3C(=O)O)CC2)cc1, which Ki is on record?
**A.** 73 nM

**Q.** With O=C(O)c1cc(SCCc2ccccc2)ccc1NS(=O)(=O)N1CCN(c2ccccc2)CC1 as the compound, how does the Ki read?
**A.** 570 nM

**Q.** Which Ki does the source give for O=C(O)c1cc(SCCc2ccccc2)ccc1NS(=O)(=O)CCc1ccccc1 here?
**A.** 1700 nM

**Q.** How did the Ki turn out when O=C(O)c1cc(SCCc2ccccc2)ccc1NS(=O)(=O)c1cccs1 was run?
**A.** 2000 nM

**Q.** COc1cccc(CCSc2ccc(NS(=O)(=O)N3CCN(c4ccc(C(C)(C)C)cc4)CC3)c(C(=O)O)c2)c1 was tested. Which Ki did it give?
**A.** 74 nM

**Q.** Which Ki does the source give for O=C(O)c1cc(SCCc2ccccc2)ccc1NS(=O)(=O)c1ccc(-c2ccccc2)nc1 here?
**A.** 200 nM

**Q.** How did the Ki turn out when O=C(CCc1ccccc1)Nc1ccc(NS(=O)(=O)c2ccccc2)c(C(=O)O)c1 was run?
**A.** 19000 nM

**Q.** With CC(C)(C)c1ccc(N2CCN(S(=O)(=O)Nc3ccc(SCCc4cccc(O)c4)cc3C(=O)O)CC2)cc1 as the compound, how does the Ki read?
**A.** 290 nM

**Q.** Which Ki does the source give for O=C(O)c1cc(SCCc2ccccc2)ccc1NS(=O)(=O)c1ccccc1 here?
**A.** 1500 nM

**Q.** Which Ki does the source give for O=C(O)c1ccccc1NS(=O)(=O)c1ccccc1 here?
**A.** 47800 nM

**Q.** With O=C(Cc1ccccc1)Nc1ccc(NS(=O)(=O)c2ccccc2)c(C(=O)O)c1 as the compound, how does the Ki read?
**A.** 70400 nM

**Q.** Which Ki does the source give for O=C(O)c1cc(SCCc2ccccc2)ccc1NS(=O)(=O)c1ccc(Br)cc1 here?
**A.** 810 nM

**Q.** O=C(O)c1cc(SCCc2ccccc2)ccc1NS(=O)(=O)c1ccc(C2CCCCC2)cc1 was tested. Which Ki did it give?
**A.** 87 nM

**Q.** For O=C(O)c1cc(NCCc2ccccc2)ccc1NS(=O)(=O)c1ccccc1, which Ki is on record?
**A.** 4700 nM

**Q.** How did the Ki turn out when O=C(O)c1cc(SCc2ccccc2)ccc1NS(=O)(=O)c1ccccc1 was run?
**A.** 2600 nM

**Q.** How did the Ki turn out when Nc1ccc(SCCc2ccccc2)cc1C(=O)O was run?
**A.** 3400 nM

**Q.** With O=C(Nc1ccc(SCCc2ccccc2)cc1C(=O)O)c1ccccc1 as the compound, how does the Ki read?
**A.** 2700 nM

**Q.** CC(C)(C)c1ccc(N2CCN(S(=O)(=O)Nc3ccc(SCCC(=O)Nc4ccccc4)cc3C(=O)O)CC2)cc1 was tested. Which Ki did it give?
**A.** 950 nM

**Q.** For O=C(O)c1cc(SCCc2ccccc2)ccc1NS(=O)(=O)N1CCC(c2ccccc2)CC1, which Ki is on record?
**A.** 330 nM

**Q.** How did the Ki turn out when O=C(O)c1cc(SCCc2ccccc2)ccc1NS(=O)(=O)N1CCN(Cc2ccccc2)CC1 was run?
**A.** 840 nM

**Q.** O=C(CCSc1ccc(NS(=O)(=O)c2ccccc2)c(C(=O)O)c1)Nc1ccccc1 was tested. Which Ki did it give?
**A.** 13100 nM

**Q.** Which Ki does the source give for O=C(CCCSc1ccc(NS(=O)(=O)c2ccccc2)c(C(=O)O)c1)Nc1ccccc1 here?
**A.** 32800 nM

Each compound was assayed against T3, Bcl-2-like protein 1.

**Q.** For CC(C)(C)c1ccc(N2CCN(S(=O)(=O)Nc3ccc(SCCc4ccccc4)cc3C(=O)O)CC2)cc1, which Ki is on record?
**A.** 3500 nM

**Q.** Which Ki does the source give for O=C(O)c1cc(SCCc2ccccc2)ccc1NS(=O)(=O)N1CCN(c2ccccc2)CC1 here?
**A.** 6600 nM

**Q.** With COc1cccc(CCSc2ccc(NS(=O)(=O)N3CCN(c4ccc(C(C)(C)C)cc4)CC3)c(C(=O)O)c2)c1 as the compound, how does the Ki read?
**A.** 6700 nM

**Q.** With O=C(O)c1cc(SCCc2ccccc2)ccc1NS(=O)(=O)c1ccccc1 as the compound, how does the Ki read?
**A.** > 25000 nM

**Q.** With CC(C)(C)c1ccc(N2CCN(S(=O)(=O)Nc3ccc(SCCC(=O)Nc4ccccc4)cc3C(=O)O)CC2)cc1 as the compound, how does the Ki read?
**A.** > 25000 nM

What follows are compounds tested against T1, Apoptosis regulator Bcl-2 (assay: Inhibition of Bcl2 (unknown origin) expressed in Eu-Myc cells assessed as induction of cell death at 75 to 100 uM incubated for 24 hrs by violet LIVE/DEAD fixable dead cell staining based flow cytometry).

**Q.** How did the inhibition turn out when CC(C)(C)c1ccc(N2CCN(S(=O)(=O)Nc3ccc(SCCc4ccccc4)cc3C(=O)O)CC2)cc1 was run?
**A.** Active

What follows are compounds tested against T4, Bcl-2-related protein A1 (Homo sapiens) (UniProt Q16548).
T4 sequence (whole entry): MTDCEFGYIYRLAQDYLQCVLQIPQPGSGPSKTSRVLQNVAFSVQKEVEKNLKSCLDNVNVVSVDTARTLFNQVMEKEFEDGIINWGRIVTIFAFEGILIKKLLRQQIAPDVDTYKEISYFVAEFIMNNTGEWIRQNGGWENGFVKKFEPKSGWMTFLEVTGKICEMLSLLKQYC

**Q.** Which Activity does the source give for CC(C)(C)c1ccc(N2CCN(S(=O)(=O)Nc3ccc(SCCc4ccccc4)cc3C(=O)O)CC2)cc1 here?
**A.** Active

These compounds were tested against T5, Bcl-2-related protein A1 (Homo sapiens, UniProt Q16548).
T5 sequence (Q16548 whole entry): T4 sequence (whole entry)

**Q.** With CC(C)(C)c1ccc(N2CCN(S(=O)(=O)Nc3ccc(SCCc4ccccc4)cc3C(=O)O)CC2)cc1 as the compound, how does the Kd read?
**A.** 920 nM

Biological target: T5, Bcl-2-related protein A1
Remark: another data set of the same source

**Q.** O=C(O)c1cc(OCCc2ccccc2)ccc1NS(=O)(=O)c1ccccc1 was tested. Which Ki did it give?
**A.** 10600 nM

**Q.** For O=C(O)c1cc(SCCc2ccccc2)ccc1NS(=O)(=O)c1ccc(-c2ccccc2)cc1, which Ki is on record?
**A.** 150 nM

**Q.** CC(C)(C)c1ccc(N2CCN(S(=O)(=O)Nc3ccc(SCCc4ccccc4)cc3C(=O)O)CC2)cc1 was tested. Which Ki did it give?
**A.** 84 nM

**Q.** For O=C(O)c1cc(SCCc2ccccc2)ccc1NS(=O)(=O)N1CCN(c2ccccc2)CC1, which Ki is on record?
**A.** 760 nM

**Q.** How did the Ki turn out when O=C(O)c1cc(SCCc2ccccc2)ccc1NS(=O)(=O)CCc1ccccc1 was run?
**A.** 1700 nM

**Q.** With O=C(O)c1cc(SCCc2ccccc2)ccc1NS(=O)(=O)c1cccs1 as the compound, how does the Ki read?
**A.** 3400 nM

**Q.** For COc1cccc(CCSc2ccc(NS(=O)(=O)N3CCN(c4ccc(C(C)(C)C)cc4)CC3)c(C(=O)O)c2)c1, which Ki is on record?
**A.** 100 nM

**Q.** For O=C(O)c1cc(SCCc2ccccc2)ccc1NS(=O)(=O)c1ccc(-c2ccccc2)nc1, which Ki is on record?
**A.** 280 nM

**Q.** For O=C(CCc1ccccc1)Nc1ccc(NS(=O)(=O)c2ccccc2)c(C(=O)O)c1, which Ki is on record?
**A.** 62000 nM

**Q.** How did the Ki turn out when CC(C)(C)c1ccc(N2CCN(S(=O)(=O)Nc3ccc(SCCc4cccc(O)c4)cc3C(=O)O)CC2)cc1 was run?
**A.** 250 nM

**Q.** For O=C(O)c1cc(SCCc2ccccc2)ccc1NS(=O)(=O)c1ccccc1, which Ki is on record?
**A.** 1600 nM

**Q.** For O=C(O)c1ccccc1NS(=O)(=O)c1ccccc1, which Ki is on record?
**A.** > 100000 nM

**Q.** How did the Ki turn out when O=C(Cc1ccccc1)Nc1ccc(NS(=O)(=O)c2ccccc2)c(C(=O)O)c1 was run?
**A.** > 70000 nM

**Q.** How did the Ki turn out when O=C(O)c1cc(SCCc2ccccc2)ccc1NS(=O)(=O)c1ccc(Br)cc1 was run?
**A.** 810 nM

**Q.** For O=C(O)c1cc(SCCc2ccccc2)ccc1NS(=O)(=O)c1ccc(C2CCCCC2)cc1, which Ki is on record?
**A.** 170 nM

**Q.** For O=C(O)c1cc(NCCc2ccccc2)ccc1NS(=O)(=O)c1ccccc1, which Ki is on record?
**A.** 3800 nM

**Q.** Which Ki does the source give for O=C(O)c1cc(SCc2ccccc2)ccc1NS(=O)(=O)c1ccccc1 here?
**A.** 3000 nM

**Q.** Nc1ccc(SCCc2ccccc2)cc1C(=O)O was tested. Which Ki did it give?
**A.** 3700 nM

**Q.** O=C(Nc1ccc(SCCc2ccccc2)cc1C(=O)O)c1ccccc1 was tested. Which Ki did it give?
**A.** 4600 nM

**Q.** For CC(C)(C)c1ccc(N2CCN(S(=O)(=O)Nc3ccc(SCCC(=O)Nc4ccccc4)cc3C(=O)O)CC2)cc1, which Ki is on record?
**A.** 1100 nM

**Q.** With O=C(O)c1cc(SCCc2ccccc2)ccc1NS(=O)(=O)N1CCC(c2ccccc2)CC1 as the compound, how does the Ki read?
**A.** 390 nM

**Q.** With O=C(O)c1cc(SCCc2ccccc2)ccc1NS(=O)(=O)N1CCN(Cc2ccccc2)CC1 as the compound, how does the Ki read?
**A.** 1000 nM

**Q.** With O=C(CCSc1ccc(NS(=O)(=O)c2ccccc2)c(C(=O)O)c1)Nc1ccccc1 as the compound, how does the Ki read?
**A.** 14800 nM

**Q.** How did the Ki turn out when O=C(CCCSc1ccc(NS(=O)(=O)c2ccccc2)c(C(=O)O)c1)Nc1ccccc1 was run?
**A.** > 70000 nM
